“Also recorded” adds a separate entry of the source.
How the values were obtained:
U2OS cells = test: Cell Painting assay (CPA), morphological fingerprints; assay type: cell-based, human; conditions: Homo sapiens, U2OS; Conc 10 μM; 20 h; read-out: Cell count [%]
Method: Therefore, the definition of bioactivity clusters is crucial for proper hypothesis generation for uncharacterized small molecules that are subjected to the CPA and requires thorough inspection of the CPA fingerprints of reference compounds.[[2b], [9], [10]] […] For the CPA, human osteosarcoma U2OS cells were treated with compounds for 20 h prior to detection of cellular components and compartments (DNA, RNA, mitochondria, Golgi, endoplasmic reticulum (ER), actin, plasma membrane) using six different dyes. Morphological features are extracted and differences to the control (cells that were treated with DMSO) are expressed as Z scores. The CPA fingerprints used in this study compile Z scores for 579 features. […] Myxothiazol is an inhibitor of complex III of the mitochondrial electron transport chain.[15] Whereas de novo biosynthesis of pyrimidines takes place in the cytosol, DHODH is the only enzyme of the pyrimidine biosynthesis pathway that is localized at the inner mitochondrial membrane.[16] DHODH catalyzes the oxidation of dihydroorotate (DHO) to orotate by transferring electrons from DHO via the cofactor FMN to ubiquinone to yield ubiquinol. Electrons from ubiquinol are transferred further to complex III (cytochrome b,c1 complex), thereby recycling […] that is required for DHODH activity. In this way, pyrimidine biosynthesis is tightly coupled to the activity of complex III, which ensures that pyrimidine nucleotides and, thus, DNA and RNA are synthesized only if cells are supplied with sufficient amount of ATP via the mitochondrial respiratory chain. Alternatively, cells can replenish their pyrimidine pools via the salvage pathway by uptake of circulating pyrimidines.[5] Whereas proliferating cells rely on de novo pyrimidine biosynthesis to meet the high demand for nucleotides, the salvage pathway is used by resting and fully differentiated cells.[5]
The cell painting assay: The Cell Painting assay[25] was performed as described previously.[[9a], [26]] U2OS medium (5 μL) was added to each well of a 384‐well plate (PerkinElmer CellCarrier‐384 Ultra) prior to addition of 1,600 U2OS cells per well and incubation for 4 h at 37 °C. Standard stock concentration of compounds was 10 mM. […] Compounds were added to the cells using the Echo 520 acoustic dispenser (Labcyte) followed by incubation for 20 h at 37 °C. Subsequently, mitochondria were stained with 0.1 μg/μL Mito Tracker Deep Red for 30 min at 37 °C in the dark. Cells were fixed using 3.7 % formaldehyde (in PBS) for 20 min at 37 °C in the dark. Cells were washed three times using PBS before permeabilization using Triton X‐100 for 15 min 37 °C in the dark. After three additional washing steps, 25 μL of a staining solution were added to each well, which contained 1 % BSA, 5 μL/mL Phalloidin (Alexa594 conjugate, Thermo Fisher Scientific, A12381), 25 μg/mL Concanavalin A (Alexa488 conjugate, Thermo Fisher Scientific, Cat. No. C11252), 5 μg/mL Hoechst 33342 (Sigma, Cat. No. B2261‐25 mg), 1.5 μg/mL WGA‐Alexa594 conjugate (Thermo Fisher Scientific, Cat. No. W11262) and 1.5 μM SYTO 14 solution (Thermo Fisher Scientific, Cat. No. S7576). Plates were incubated for 30 min at 37 °C in the dark and washed three times with PBS. Plates were sealed and centrifuged for 1 min at 500 rpm. The plates were prepared in triplicates with shifted layouts to reduce plate effects and imaged using a Micro XL High‐Content Screening System (Molecular Devices) in 5 channels (DAPI: Ex350‐400/Em410‐480; FITC: Ex470‐500/Em510‐540; Spectrum Gold: Ex520‐545/Em560‐585; TxRed: Ex535‐585/Em600‐650; Cy5: Ex605‐650/Em670‐715) with 9 sites per well and 20× magnification (binning 2).
Generated images were processed with the CellProfiler package[27] (https://cellprofiler.org, version 3.0.0) on a computing cluster of the Max Planck Society to extract 1716 cell features. The data was then further aggregated as medians per well (9 sites→1 well), then over the three replicates.

HCT116 cells = test: DHODH rescue assay / cell growth (cell confluence, IncuCyte); assay type: cell-based; conditions: 1.5 mM OA, 96 h, 2, 6, 7 at 10 μM, 4 at 30 μM
Method: Figure 3 Influence of compounds on cell growth and DHODH activity. (A–C) HCT116 cells were treated with the compounds or DMSO as a control in presence or absence of 100 μM uridine. Cell confluence as a measure of cell growth was monitored over 96 h using IncuCyte ZOOM/S3. (A) Brequinar (BRQ). (B) Myxothiazol (MXT). […] (D–E) In vitro DHODH activity. […] (F) Influence of compound 7 on complex III activity. All data are mean values of three biological replicates (n=3)±SD.
DHODH rescue assay: 2,000 HCT116 or U2OS cells per well were seeded in a clear 96‐well plate and incubated as described above overnight prior to treatment. The next day, the medium was replaced by fresh compound or DMSO containing medium supplemented with control solvent or uridine (100 μM), OA (1.5 mM) or DHO (1.5 mM). Cell growth was monitored every 2 h for a total of 96 h after treatment start using an IncuCyte S3 (Essen BioScience). The cell confluence was quantified as a measure of cell growth using the IncuCyte S3 software (Essen BioScience).

Human DHODH = target: T1, Human DHODH (Homo sapiens, UniProt Q02127); test: DHODH enzymatic assay (DCPIP reduction); assay type: biochemical; conditions: 10 μM compound
T1 construct: 40 μL of purified DHODH (aa31–395, final concentration: 1.25 μg/mL); made in house; host or cells: E. coli BL21 (DE3)
Method: Expression was induced by adding 0.8 mM IPTG (AppliChem, A1008,0025) and temperature was reduced to 28 °C for 6 hours. […] The clarified supernatant was loaded to the column and washed with PBS (1 mL/min) for 2 h, followed by elution with 10 mM L‐glutathione (Sigma Aldrich, G4251) in PBS. The GST tag was not removed for further analysis. Factions containing hDHODH‐GST protein were pooled, concentrated with centrifugal filters (Ultra‐50 K, Merck Millipore, UFC905096) and shock‐frozen for further analysis. Protein concentration was determined by Bradford measurement.
DHODH enzymatic assay: Enzymatic activity of DHODH was assessed by monitoring the reduction of 2,6‐dichlorophenolinindophenol (DCPIP), which is coupled to the oxidation of dihydroorotate by DHODH. […] The reaction was initiated by adding 50 μL mastermix (2 mM L‐dihydroorotic acid, 0.2 mM decylubiquonone, 0.12 mM 2,6 dichlorphenolindophenol (DCPIP) in assay buffer). DCPIP reduction was monitored at λ=600 nm using Tecan Spark plate reader for 20 min.

complex III = target: T2, complex III (Bos taurus, UniProt P00157); test: MitoTox complex II+III OXPHOS activity assay kit; assay type: biochemical; conditions: bovine heart mitochondria; Figure 3F
T2 construct: tissue Abcam ab109905; host or cells: bovine heart mitochondria
Method: MitoTox™ complex II+III OXPHOS activity assay kit: The assay was performed using the MitoTox™ Complex II+III OXPHOS Activity Assay Kit (ab109905, Abcam) according to the manufacturer's instructions. Compounds or DMSO as a control was mixed with succinate solution (electron donor) and oxidized cytochrome c (electron acceptor) in the presence of complex IV inhibitor […] (2 mM, 60168, Sigma Aldrich) and complex I inhibitor Rotenone (12 μM, R8875, Sigma Aldrich). To start the electron transfer reaction, bovine heart mitochondria (0.03 mg/mL) were added to the mixture and conversion of oxidized cytochrome c into the reduced form was monitored for 5 min at 550 nm using the Tecan Spark plate reader.

T1 sequence (Q02127 31-395): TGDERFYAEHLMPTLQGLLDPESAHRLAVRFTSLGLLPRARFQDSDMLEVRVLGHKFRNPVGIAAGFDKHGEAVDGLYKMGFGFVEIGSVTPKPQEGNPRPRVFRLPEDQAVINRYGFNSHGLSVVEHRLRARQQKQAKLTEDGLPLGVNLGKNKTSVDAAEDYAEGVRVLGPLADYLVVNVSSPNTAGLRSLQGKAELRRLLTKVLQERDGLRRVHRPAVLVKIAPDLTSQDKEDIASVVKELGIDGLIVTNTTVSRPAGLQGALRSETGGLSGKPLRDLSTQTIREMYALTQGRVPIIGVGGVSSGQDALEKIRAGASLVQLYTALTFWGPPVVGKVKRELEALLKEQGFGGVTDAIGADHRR

In the case of `CC(=O)Oc1c(C[C@]23CCOC4(CCCCC4)C2=Nc2ccc(Br)cc23)occc1=O` [Compound 7], the viability at 10 µM (U2OS cells) is reported as 93%, the “rescue of cell growth by orotate (OA)” value (HCT116 cells) is reported as “relieved” and the “influence on in vitro DHODH activity, in words” value (Human DHODH) is reported as “inactive; also recorded: did not have any influence”. The “influence on complex III activity” value (complex III) was “did not impair”.
